Patent US7994202B2, “Bicyclic nitrogen-containing heterocyclic compounds” (Asahi Kasei Pharma Corporation, priority 2008, dated 2011)

Key:
[1] = tested on: SD rats; test: Action of extending interval of micturition in rat in wakefulness II (0.3% acetic acid-induced cystitis); assay type: in vivo; settings: male SD rats in wakefulness, 0.3% acetic acid cystitis, intravenous
Description: SD rats (Charles River Laboratories Japan, Inc., male) were employed as experimental animals. Each rat was put under anesthesia by inhalation of 2% isoflurane (laughing gas:oxygen=7:3), and then was fixed in the supine position. Anesthesia was maintained by the inhalation of 2% isoflurane. The abdominal part was incised along the midline, and the urinary bladder was exposed from the intraperitoneal cavity. The vertex vesicae part was subjected to a small incision, and a polyethylene tube (PE-50: Becton Dickinson and Company) was inserted into the bladder and fixed. […] Thereafter, while physiological saline warmed to 37° C. was injected to the other end of the tube inserted into the bladder through one branch of a three-way stopcock at a rate of 3.0 mL/hr, the internal pressure of the bladder was continuously recorded from another branch using a pressure amplifier through a pressure transducer. The excreted urine was cumulatively accumulated in a vessel on a digital balance, and the weight change was simultaneously measured. […] The value obtained before the administration was taken from an average value of the values measured for 30 minutes before the administration, and the value obtained after the administration was taken from an average value of the values measured for 60 minutes immediately after the administration. […]

[2] = target: T1, human EP1 receptor (Homo sapiens, UniProt P34995); test: Antagonist activity using cells expressing human EP1 receptor (SRE-luciferase reporter activity, PGE2 10 nM); assay type: cell-based; settings: HEK293 cells stably expressing human EP1 receptor, 6 hours, read-out: IC50 value in the measurement of antagonist activity using human EP1 receptor expressing cells
T1 construct: expressed in transfected cells
T1 sequence (P34995 1-402): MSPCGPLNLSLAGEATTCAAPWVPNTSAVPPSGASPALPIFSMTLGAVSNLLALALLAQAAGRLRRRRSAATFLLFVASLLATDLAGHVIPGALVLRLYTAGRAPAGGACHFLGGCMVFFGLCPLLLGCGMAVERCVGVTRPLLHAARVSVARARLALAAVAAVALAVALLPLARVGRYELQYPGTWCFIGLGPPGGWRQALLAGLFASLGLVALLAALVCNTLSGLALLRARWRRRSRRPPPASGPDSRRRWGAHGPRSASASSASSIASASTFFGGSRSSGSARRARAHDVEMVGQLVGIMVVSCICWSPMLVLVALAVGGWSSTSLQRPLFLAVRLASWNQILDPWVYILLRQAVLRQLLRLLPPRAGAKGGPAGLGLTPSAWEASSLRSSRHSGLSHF
Description: (§1) Measurement of an Antagonist Activity by Using Cells Expressing Human EP1 Receptor
As a result of searching Refseq Database for prostaglandin E receptor, genetic information of human EP1 (NM_000955) receptor was obtained. Based on this sequence information, human EP1 receptor gene was cloned by PCR using human cDNA as a template and by an ordinary method to give human EP1 receptor. Then, HEK293 in which the receptor is stably expressed was established, together with a reporter gene (SRE-Luciferase) in which serum responsible element (SRE) is added at the upstream region of firefly luciferase gene. The resulting cells were seeded to a 96 well plate (5×10^4 cells/well) and cultured for one day. To the plate, PGE2 (200 nM, final concentration 10 nM) and the test compound (in an amount of 1/20, 20× of the final concentration) were added to initiate the reaction. After allowing the reaction to proceed at 37° C. for 6 hours, the medium was aspirated off, added with a luminescent agent and the reporter activity was measured. […]

[3] = target: T1, human EP1 receptor; test: Receptor binding test using cells expressing human EP1 receptor ([3H]PGE2 binding inhibition, membrane fraction); settings: membrane fraction of HEK293 cells expressing human EP1 receptor, [3H]PGE2 1 nM; read-out: Ki value in the measurement of [3H]PGE2 binding inhibitory activity
Experimental: Receptor Binding Test Using Cells Expressing Human EP1 Receptor
Inhibitory activity of the test compounds on binding of [^3H]PGE2 in HEK293 cells stably expressing human EP1 receptor was measured.
HEK293 cells, which stably express human EP1 receptor, were established by using the gene for human EP1 receptor, and then a membrane fraction was prepared therefrom. Thus-prepared membrane fraction was incubated at 30° C. for 90 minutes with a reaction solution (200 μL/well) which includes the test compound and [^3H]PGE2. Upon the completion of the reaction, the reaction solution was aspirated off under reduced pressure, and the [^3H]PGE2 bound to the membrane fraction was trapped by using Unifilter Plateg CF/C (manufactured by Packard) and the bound radioactivity was counted with a liquid scintillator.
Kd value was obtained from a Scatchard plot. Non-specific binding was obtained from the binding in the presence of an excess amount (10 μM) of non-labeled PGE2. For the measurement of an inhibitory activity of the test compound on [^3H]PGE2 binding, [^3H]PGE2 (1 nM) and various concentrations of the test compound were added. Meanwhile, for all of the reactions, the buffer as described below was used.
Buffer; 10 mM MES/NaOH (pH 6.0), 10 mM MgCl2, 1 mM EDTA, 0.1% BSA
Dissociation constant of the compounds, i.e., Ki, was obtained according to the following equation. […]

[4] = target: T1, human EP1 receptor; test: Antagonist activity using cells expressing human EP1 receptor (intracellular Ca2+ assay, Fura 2-AM); assay type: cell-based; settings: HEK293 cells stably expressing human EP1 receptor, PGE2 10 nM
Experimental: as §1
Cells expressing human EP1 receptor were suspended in an assay buffer to the concentration of 5×10^6 cells/ml, added with Puronic F-127 (final concentration 0.2%), and Fura 2-AM (final concentration 5 uM), followed by incubation at 37° C. for 30 minutes. After washing twice with the assay buffer, the cells were again suspended in the assay buffer to 1×10^6 cells/60 ul, and then transferred to a 96 well UV plate (1×10^6 cells/60 ul/well). Thereafter, by using a fluorescent chemical screening system (FDSS4000, Hamamatsu Photonics K.K.), intracellular Ca^2+ concentration was measured after adding 20 ul of each of the test compounds and PGE2 (5× of the final concentration for both). Ca^2+ concentration was measured by determining fluorescence intensity after irradiation with two excitation wavelengths, i.e., 340 and 380 nm.
Furthermore, EP1 antagonist activity was calculated as a ratio (%) of inhibiting increase in intracellular Ca^2+ concentration by PGE2 (10 nM).
Assay buffer: 20 mM HEPES/KOH (pH 7.4), 115 mM NaCl, 5.4 mM KCl, 0.8 mM MgCl2, 0.8 mM CaCl2, 13.8 mM D-glucose, 0.1% BSA

[5] = tested on: female SD rat; test: Micturition interval prolongation in an anesthetized rat - II (0.2% acetic acid infusion to bladder); assay type: in vivo; settings: urethane-anesthetized female SD rat, 0.2% acetic acid bladder infusion, administered to the left femoral vein
Experimental: Activity of prolonging micturition interval in an anesthetized rat was determined with reference to the method established by Maggi, et al. (Eur. J. Pharmacol. 145, p. 105-112 (1988)). Specifically, a female SD rat was anesthetized with urethane and fixed in a supine position, and a catheter was inserted through an external urethral opening. Using a three-way stopcock, it was connected to a pressure transducer and a syringe pump. While infusing physiological saline including 0.2% acetic acid to the bladder at constant rate, cystometrogram was recorded. After confirming stabilized micturition interval, micturition threshold pressure and maximal voiding pressure, a solvent or the compound to be tested was administered to the left femoral vein and an activity of prolonging micturition interval was determined as an efficacy of the drug compound. Each group included five animals.

Row | SMILES | IC50 [2] | IC50 [4] | further results
1 | O=C(O)c1csc(-n2nc(-c3ccccc3)c3ccc(C(F)(F)F)cc32)n1 [Exp.77] | – | – | amount of micturition [1]: increase in the amount of micturition; micturition interval extension ([1]; 60 minutes after administration): ≥ 30%
2 | O=C(O)c1csc(-n2nc(-c3ccccc3)c3ccc(C(F)(F)F)nc32)n1 [Exp.106] | ≤ 20 nM | ≤ 100 nM | Ki [3]: ≤ 100 nM
3 | O=C(O)c1csc(-n2nc(C3=CCCCO3)c3ccc(C(F)(F)F)cc32)n1 [Exp.105] | ≤ 20 nM | ≤ 100 nM | Ki [3]: ≤ 100 nM
4 | Cc1ccccc1-c1nn(-c2nc(C(=O)O)cs2)c2ccccc12 [Exp.9] | ≤ 20 nM | 100 to 300 nM | –
5 | O=C(O)c1csc(-n2nc(-c3ccccc3)c3ccccc32)n1 [Exp.2, 2-(3-Phenyl-1H-indazol-1-yl)thiazole-4-carboxylic acid] | – | – | Voiding interval-extending action [5]: 30.0%
6 | O=C(O)c1csc(-n2nc(-c3cccc(O)c3)c3ccccc32)n1 [Exp.16] | 20 to 100 nM | 100 to 300 nM | –
7 | O=C(O)c1csc(-n2nc(-c3ccccc3)c3ccc(SCc4ccccc4)nc32)n1 [Exp. 176] | 100 to 500 nM | – | –
8 | CCSc1ccc2c(-c3ccccc3)nn(-c3nc(C(=O)O)cs3)c2n1 [Exp. 165] | 100 to 500 nM | – | –
9 | C=Cc1ccc2c(-c3ccccc3)nn(-c3nc(C(=O)OCC)cs3)c2c1 [Exp.116, Ethyl 2-(3-phenyl-6-vinyl-1H-indazol-1-yl)thiazole-4-carboxylate] | 20 to 100 nM | – | –
10 | O=C(O)c1csc(-n2nc(-c3ccccc3)c3c2CC(C(F)(F)F)CC3)n1 (centres unmarked) [Exp.102] | ≤ 20 nM | – | –
11 | O=C(O)c1csc(-n2nc(-c3ccccc3)c3ccc(Sc4cccc(C(F)(F)F)c4)nc32)n1 [Exp.179] | 20 to 100 nM | – | –
12 | CC(C)S(=O)(=O)Nc1ccc2c(-c3ccccc3)nn(-c3nc(C(=O)O)cs3)c2c1 [Exp. 141] | 100 to 500 nM | – | –
13 | O=C(O)c1csc(Cn2nc(-c3ccccc3)c3ccc(C(F)(F)F)cc32)n1 [Exp.104] | ≤ 20 nM | – | –
